Data as given in patent US6841578B2, “Treatment and prevention of mucositis in cancer patients” (priority 2001, dated 2005).

Key:
NF-κB = conditions: induction by TNF-α; phosphorylation and nuclear translocation of p65 subunit suppressed; cited from earlier work
[1] = system: radiation-induced mucositis; experiment: Hamster model of acute radiation-induced mucositis treated with resveratrol; assay type: in vivo, Male Golden Syrian hamsters; conditions: for percentage of days where hamsters had a mucositis score of three or higher: qd, day -1 to day 20, 40 Gy on day 0, control 46.0%

Oc1ccc(/C=C/c2cc(O)cc(O)c2)cc1 [resveratrol, trans-3,4′,5-trihydroxystilbene]
activation of NF-κB (NF-κB): blocked the activation of NF-κB
percentage of days where hamsters had a mucositis score of three or higher ([1]; 1 mM resveratrol, intraperitoneal): 21.6%
percentage of days where hamsters had a mucositis score of three or higher ([1]; 5 mM resveratrol, intraperitoneal): 31.2%
severity of mucositis compared to the control ([1]; intraperitoneal, 1 mM and 5 mM (FIG. 2)): reduced the severity of mucositis
efficacy of 1 mM compared with 5 mM treatment ([1]; intraperitoneal, 1 mM versus 5 mM): more effective
efficacy of topical application on mucositis ([1]; topical, tid, 1 mM and 5 mM): not statistically significant, indicated a trend of efficacy
